In patent publication US11180474B2 (BRISTOL-MYERS SQUIBB COMPANY, priority 2016, dated 2021):

What was measured:
human TLR7 = target: T1, human TLR7 (Homo sapiens, UniProt Q9NYK1); assay: TLR7 inhibition reporter assay (HEK-Blue cells, SEAP reporter, gardiquimod stimulation); type: cell-based; conditions: HEK-Blue cells overexpressing human TLR7, gardiquimod 7.5 μM
T1 construct: host or cells: HEK-Blue cells
T1 sequence (Q9NYK1 27-1049): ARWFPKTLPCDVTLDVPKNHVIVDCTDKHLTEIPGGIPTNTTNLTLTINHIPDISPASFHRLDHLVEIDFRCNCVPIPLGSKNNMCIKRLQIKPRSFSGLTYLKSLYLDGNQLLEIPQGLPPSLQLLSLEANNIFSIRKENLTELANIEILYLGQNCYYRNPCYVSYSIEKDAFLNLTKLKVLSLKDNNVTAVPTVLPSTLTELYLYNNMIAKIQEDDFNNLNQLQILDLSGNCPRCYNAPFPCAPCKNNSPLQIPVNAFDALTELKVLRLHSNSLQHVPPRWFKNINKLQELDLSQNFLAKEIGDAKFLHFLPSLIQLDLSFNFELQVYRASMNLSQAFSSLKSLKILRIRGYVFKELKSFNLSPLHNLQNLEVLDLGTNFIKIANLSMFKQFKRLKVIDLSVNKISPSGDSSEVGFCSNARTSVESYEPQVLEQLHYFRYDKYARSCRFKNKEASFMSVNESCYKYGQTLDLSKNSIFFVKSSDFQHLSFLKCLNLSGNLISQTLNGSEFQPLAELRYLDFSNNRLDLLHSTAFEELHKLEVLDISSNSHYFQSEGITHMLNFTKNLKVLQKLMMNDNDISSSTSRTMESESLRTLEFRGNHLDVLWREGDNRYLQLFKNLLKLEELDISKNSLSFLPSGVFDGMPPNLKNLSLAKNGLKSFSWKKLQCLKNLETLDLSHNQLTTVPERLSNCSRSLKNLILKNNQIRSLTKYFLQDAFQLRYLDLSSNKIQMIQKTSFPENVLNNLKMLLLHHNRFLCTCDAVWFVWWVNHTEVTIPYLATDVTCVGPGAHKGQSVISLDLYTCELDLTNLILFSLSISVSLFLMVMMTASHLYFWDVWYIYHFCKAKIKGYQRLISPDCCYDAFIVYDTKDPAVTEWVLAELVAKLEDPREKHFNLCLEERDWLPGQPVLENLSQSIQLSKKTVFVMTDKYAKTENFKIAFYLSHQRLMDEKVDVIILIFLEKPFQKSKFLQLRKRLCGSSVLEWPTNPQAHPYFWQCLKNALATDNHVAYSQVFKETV
Protocol: (§1) TLR7/8/9 Inhibition Reporter Assays
Briefly, cells are seeded into Greiner 384 well plates (15000 cells per well for TLR7, 20,000 for TLR8 and 25,000 for TLR9) and then treated with test compounds in DMSO to yield a final dose response concentration range of 0.05 nM-50 μM. […] After a 22 hour incubation at 37° C., 5% CO2, SEAP levels are determined with the addition of HEK-Blue™ Detection reagent (Invivogen), a cell culture medium that allows for detection of SEAP, according to manufacturer's specifications. The percent inhibition is determined as the % reduction in the HEK-Blue signal present in wells treated with agonist plus DMSO alone compared to wells treated with a known inhibitor.

human TLR9 = target: T2, human TLR9 (Homo sapiens, UniProt Q9NR96); assay: TLR9 inhibition reporter assay (HEK-Blue cells, SEAP reporter, ODN2006 stimulation); type: cell-based; conditions: HEK-Blue cells overexpressing human TLR9, ODN2006 5 nM
T2 construct: host or cells: HEK-Blue cells
T2 sequence (Q9NR96 26-1032): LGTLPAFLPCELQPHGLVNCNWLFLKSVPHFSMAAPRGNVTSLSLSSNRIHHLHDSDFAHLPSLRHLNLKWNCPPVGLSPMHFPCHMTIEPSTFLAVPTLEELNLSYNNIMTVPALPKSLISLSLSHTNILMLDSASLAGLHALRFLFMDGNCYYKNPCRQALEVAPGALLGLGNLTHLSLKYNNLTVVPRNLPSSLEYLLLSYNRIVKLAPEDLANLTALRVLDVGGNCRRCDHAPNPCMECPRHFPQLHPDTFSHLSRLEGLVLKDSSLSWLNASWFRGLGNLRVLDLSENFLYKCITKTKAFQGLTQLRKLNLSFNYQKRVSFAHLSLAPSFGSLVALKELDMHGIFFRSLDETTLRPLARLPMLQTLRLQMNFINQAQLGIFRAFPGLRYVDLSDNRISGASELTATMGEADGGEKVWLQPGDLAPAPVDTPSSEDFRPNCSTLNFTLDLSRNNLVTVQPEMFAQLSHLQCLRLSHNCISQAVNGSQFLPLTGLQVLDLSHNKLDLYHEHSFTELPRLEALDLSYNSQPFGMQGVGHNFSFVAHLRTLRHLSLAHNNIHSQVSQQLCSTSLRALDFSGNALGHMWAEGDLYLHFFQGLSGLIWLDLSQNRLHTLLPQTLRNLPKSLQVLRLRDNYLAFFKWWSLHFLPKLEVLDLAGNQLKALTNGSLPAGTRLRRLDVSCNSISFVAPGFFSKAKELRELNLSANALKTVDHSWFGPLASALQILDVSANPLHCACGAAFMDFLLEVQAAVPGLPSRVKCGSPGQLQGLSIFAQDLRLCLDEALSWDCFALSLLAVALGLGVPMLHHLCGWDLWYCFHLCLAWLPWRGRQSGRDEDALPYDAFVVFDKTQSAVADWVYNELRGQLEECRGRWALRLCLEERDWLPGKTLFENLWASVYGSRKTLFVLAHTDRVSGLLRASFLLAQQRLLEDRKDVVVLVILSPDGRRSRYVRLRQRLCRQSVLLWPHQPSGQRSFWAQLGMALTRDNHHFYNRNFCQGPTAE
Protocol: as §1
HEK-Blue™-cells (Invivogen) overexpressing human TLR7, TLR8 or TLR9 receptors were used for screening inhibitors of these receptors using an inducible SEAP (secreted embryonic alkaline phosphatase) reporter gene under the control of the IFN-β minimal promoter fused to five NF-κB and AP-1-binding sites. Briefly, cells are seeded into Greiner 384 well plates (15000 cells per well for TLR7, 20,000 for TLR8 and 25,000 for TLR9) and then treated with test compounds in DMSO to yield a final dose response concentration range of 0.05 nM-50 μM. After a 30 minute compound pre-treatment at room temperature, the cells are then stimulated with a TLR7 ligand (gardiquimod at a final concentration of 7.5 μM), TLR8 ligand (R848 at a final concentration of 15.9 μM) or TLR9 ligand (ODN2006 at a final concentration of 5 nM) to activate NF-κB and AP-1 which induce the production of SEAP. After a 22 hour incubation at 37° C., 5% CO2, SEAP levels are determined with the addition of HEK-Blue™ Detection reagent (Invivogen), a cell culture medium that allows for detection of SEAP, according to manufacturer's specifications. The percent inhibition is determined as the % reduction in the HEK-Blue signal present in wells treated with agonist plus DMSO alone compared to wells treated with a known inhibitor.

IC50 (human TLR7) [nM]	IC50 (human TLR9) [nM]	Compound
2380	10600	COc1ccc(-c2[nH]c3ccc(C4CCN(Cc5ccc(OC(F)(F)F)cc5)CC4)cc3c2C(C)C)cc1OC [Example 271, 2-(3,4-dimethoxyphenyl)-3-isopropyl-5-(1-(4-(trifluoromethoxy)benzyl)piperidin-4-yl)-1H-indole]
673	347	COc1ccc(-c2[nH]c3ccc(C4CCN(Cc5ccc(-n6cncn6)cc5)CC4)cc3c2C)cc1OC [Example 34, 5-(1-(4-(1H-1,2,4-triazol-1-yl)benzyl)piperidin-4-yl)-2-(3,4-dimethoxyphenyl)-3-methyl-1H-indole]
263	19300	CCc1c(-c2ccc(OC)c(OC)c2)[nH]c2ccc(C3CCN(C(=O)CN4CCN(C(=O)C5CCCO5)CC4)CC3)cc12 (stereo not drawn) [Example 172, 1-(4-(2-(3,4-dimethoxyphenyl)-3-ethyl-1H-indol-5-yl)piperidin-1-yl)-2-(4-(tetrahydrofuran-2-carbonyl)piperazin-1-yl)ethan-1-one]
2480	3590	COc1ccc(-c2[nH]c3ccc(C4CCN(Cc5ccnc6ccccc56)CC4)cc3c2C)cc1OC [Example 32, 4-((4-(2-(3,4-dimethoxyphenyl)-3-methyl-1H-indol-5-yl)piperidin-1-yl)methyl)quinoline]
934	216	COc1ccc(-c2[nH]c3ccc(C4CCN(C5CCN(C)CC5)CC4)cc3c2C)cc1OC [Example 11, 2-(3,4-dimethoxyphenyl)-3-methyl-5-(1′-methyl-[1,4′-bipiperidin]-4-yl)-1H-indole]
488	≥ 50000	CCc1c(-c2ccc(OC)c(OC)c2)[nH]c2ccc(C3CCN(C(=O)CN4CCN(C(C)=O)CC4)CC3)cc12 [Example 171, 2-(4-acetylpiperazin-1-yl)-1-(4-(2-(3,4-dimethoxyphenyl)-3-ethyl-1H-indol-5-yl)piperidin-1-yl)ethan-1-one]
638	1010	COc1ccc(-c2[nH]c3ccc(C4CCN(Cc5ccccn5)CC4)cc3c2C)cc1OC [Example 28, 2-(3,4-dimethoxyphenyl)-3-methyl-5-(1-(pyridin-2-ylmethyl)piperidin-4-yl)-1H-indole]
2110	1090	COc1ccc(-c2[nH]c3ccc(C4CCN(Cc5csc(N)n5)CC4)cc3c2C)cc1OC [Example 14, 4-((4-(2-(3,4-dimethoxyphenyl)-3-methyl-1H-indol-5-yl)piperidin-1-yl)methyl)thiazol-2-amine]
162	≥ 50000	COc1ccc(-c2[nH]c3ccc(C4CCN(C(=O)CNCC(F)(F)F)CC4)cc3c2C(C)C)cc1OC [Example 221, 1-(4-(2-(3,4-dimethoxyphenyl)-3-isopropyl-1H-indol-5-yl)piperidin-1-yl)-2-((2,2,2-trifluoroethyl)amino)ethan-1-one]
270	111	CCOC(=O)C1CC1CN1CCC(N2CCC(c3ccc4[nH]c(-c5ccc(OC)c(OC)c5)c(C)c4c3)CC2)CC1 (stereo not drawn) [Example 60, ethyl 2-((4-(2-(3,4-dimethoxyphenyl)-3-methyl-1H-indol-5-yl)-[1,4′-bipiperidin]-1′-yl)methyl)cyclopropane-1-carboxylate]
1180	565	COc1ccc(-c2[nH]c3ccc(C4CCN(C5CCCN(CC(C)C)C5)CC4)cc3c2C)cc1OC (stereo not drawn) [Example 417, 2-(3,4-dimethoxyphenyl)-5-(1′-isobutyl-[1,3′-bipiperidin]-4-yl)-3-methyl-1H-indole]
1790	209	COc1ccc(-c2[nH]c3ccc(C4CCN(CC5CCCCN5)CC4)cc3c2C)cc1OC (stereo not drawn) [Example 101, 2-(3,4-dimethoxyphenyl)-3-methyl-5-(1-(piperidin-2-ylmethyl)piperidin-4-yl)-1H-indole]
321	132	CCCN1CCC(N2CCC(c3ccc4[nH]c(-c5ccc(OC)c(OC)c5)c(C)c4c3)CC2)CC1 [Example 63, 2-(3,4-dimethoxyphenyl)-3-methyl-5-(1′-propyl-[1,4′-bipiperidin]-4-yl)-1H-indole]
2630	1550	COc1ccc(-c2[nH]c3ccc(C4CCN(C5CCN(C6COC6)CC5)CC4)cc3c2C)cc1OC [Example 83, 2-(3,4-dimethoxyphenyl)-3-methyl-5-(1′-(oxetan-3-yl)-[1,4′-bipiperidin]-4-yl)-1H-indole]
82	790	COc1ccc(-c2[nH]c3ccc(C4CCN(Cc5ccc(-n6ccnc6)cc5)CC4)cc3c2C(C)C)cc1OC [Example 263, 5-(1-(4-(1H-imidazol-1-yl)benzyl)piperidin-4-yl)-2-(3,4-dimethoxyphenyl)-3-isopropyl-1H-indole]
300	1640	COc1ccc(-c2[nH]c3ccc(C4CCNCC4)cc3c2C2CCOCC2)cc1OC [Example 389, 2-(3,4-dimethoxyphenyl)-5-(piperidin-4-yl)-3-(tetrahydro-2H-pyran-4-yl)-1H-indole]
1950	70	COc1ccc(-c2[nH]c3ccc(C4CCN(C5CCN(C6CCCC(C)C6)CC5)CC4)cc3c2C)cc1OC (stereo not drawn) [Example 67, 2-(3,4-dimethoxyphenyl)-3-methyl-5-(1′-(3-methylcyclohexyl)-[1,4′-bipiperidin]-4-yl)-1H-indole]
71	2840	CCc1c(-c2ccc(OC)c(OC)c2)[nH]c2ccc(C3CCN(C(=O)CNCC(C)O)CC3)cc12 (stereo not drawn) [Example 157, 1-(4-(2-(3,4-dimethoxyphenyl)-3-ethyl-1H-indol-5-yl)piperidin-1-yl)-2-((2-hydroxypropyl)amino)ethan-1-one]
